Laboratory results as given in ChEMBL document CHEMBL1129192, “D-Phe-Pro-p-Amidinobenzylamine: A potent and highly selective thrombin inhibitor” (Bioorg Med Chem Lett, 1996).
Where a SMILES comes first, the peptide text is derived from it.

Experiments:
[1] = Ratio of Thrombin Kass/Urokinase Kass
[2] = Ratio of Thrombin Kass/plasmin Kass
[3] = Ratio of Thrombin Kass/tissue plasminogen activator Kass
[4] = Ratio of Thrombin Kass/trypsin Kass

Row | Compound | Selectivity [1] | Selectivity [2] | Selectivity [3] | Selectivity [4]
1 | NC(N)=NCCCCNC(=O)[C@@H]1CCCN1C(=O)[C@H](N)Cc1ccccc1 (HELM PEPTIDE1{[dF].P.[N=C(N)NCCCCN[*:1]]}$$$$V2.0) | 31000 | 4600 | 920 | 33
2 | NC(N)=NCCC[C@@H](C=O)NC(=O)[C@@H]1CCCN1C(=O)[C@H](N)Cc1ccccc1 | 13000 | 390 | 1800 | 5.1
3 | N=C(N)c1ccc(CNC(=O)[C@@H]2CCCN2C(=O)[C@H](N)Cc2ccccc2)cc1 | 400000 | 26000 | 170000 | 130
